Laboratory results taken from paper PMC8813987, “Schwann cell endosome CGRP signals elicit periorbital mechanical allodynia in mice” (Nature Communications, 2022).

Molecular target: T1, CLR/RAMP1 (calcitonin receptor-like receptor) (Homo sapiens, UniProt O60894+Q16602)
T1 construct: gene CALCRL; with RAMP1
Assay: inhibition of CGRP-evoked Ca2+ response in primary human Schwann cells (preincubation, then washout)
Type: cell-based

T1 sequence (Q16602 23-461): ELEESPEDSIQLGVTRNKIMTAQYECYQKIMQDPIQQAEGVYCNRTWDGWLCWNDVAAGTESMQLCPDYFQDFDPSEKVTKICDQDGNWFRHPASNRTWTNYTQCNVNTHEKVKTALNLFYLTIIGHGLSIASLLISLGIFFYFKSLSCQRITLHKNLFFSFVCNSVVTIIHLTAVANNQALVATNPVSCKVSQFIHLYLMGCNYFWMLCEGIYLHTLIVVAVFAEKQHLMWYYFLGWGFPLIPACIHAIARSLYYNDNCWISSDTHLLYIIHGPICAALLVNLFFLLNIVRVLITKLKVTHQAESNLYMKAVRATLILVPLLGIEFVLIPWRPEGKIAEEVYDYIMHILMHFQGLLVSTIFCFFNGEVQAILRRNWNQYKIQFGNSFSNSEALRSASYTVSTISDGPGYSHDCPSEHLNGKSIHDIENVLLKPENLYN
T1 sequence (O60894 27-148): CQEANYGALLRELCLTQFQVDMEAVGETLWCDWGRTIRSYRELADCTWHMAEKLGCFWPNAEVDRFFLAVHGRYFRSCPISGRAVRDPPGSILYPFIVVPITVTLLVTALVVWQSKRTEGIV

- IC50: 2900 nM
SMILES: O=C(CN1C(=O)C2(CCCC2)NC[C@H]1c1cc(F)cc(F)c1)Nc1ccc2c(c1)C[C@@]1(C2)C(=O)Nc2ncccc21 [MK-3207]
